Read-outs that look alike come from different tables or passages of the source.
Experiments:
Solubility = type: physicochemical
[1] = Acute toxicity (DL50) in mice; conditions: mouse, in vivo
Source text: The DL50 has been determined in mice by the oral as well as intraperitoneal route.

[2] = system: lower limb of rats (vascular zone); assay: Vasodilator activity, perfusion of the lower limb of rats (Foster et al.); conditions: for inhibition at 50 µg/mL: read-out: Decrease in pressure, %
Source text: (Foster et al., J.Pharmacol.Exp.Ther. 89,256,1947)
This study has been carried out in rats by perfusion of the lower limb while determining the variation of the resistance offered by the vascular zone after the perfusion by means of a suitable pressure transducer.
The vaso-constricting agent used is a solution containing a high content of potassium, together with papaverine, the latter being used for comparison purposes.

[3] = system: rats having normal blood pressure; assay: Hypotensive activity in rats having normal blood pressure; type: in vivo; conditions: for Time of maximum hypotensive effect: i.p., rats with normal blood pressure
Protocol: The product has been administered by the intraperitoneal route to rats having normal blood pressure in the dose of 10 and 25 mg/kg. The systolic pressure of the animals has been measured 1, 4, and 24 hours respectively after the treatment using hydralazine in the dose of 1 mg/kg intraperitoneally for comparison. […] When the substance is administered in the dose of 25 mg/kg, the decrease in the systolic pressure is 2.5 times the decrease caused by hydralazine administered in the dose of 1 mg/kg.

[4] = system: rats having genetically high blood pressure; assay: Antihypertensive activity in rats having genetically high blood pressure; type: in vivo; conditions: 25 mg/kg orally
Protocol: There are utilized for this test rats having genetically high blood pressure. The rats are treated for three days with AF 544 in the dose of 25 mg/kg orally. After each treatment and specifically after 1, 4, 8 and 24 hours respectively, the systolic pressure of the animals is measured.

[5] = system: rats treated to cause an increase in blood pressure by tying the abdominal aorta; assay: Antihypertensive activity in rats with tied abdominal aorta, blood pressure; type: in vivo
Protocol: (§1) In a second experiment, the substance AF 544 has been administered to rats which have been treated to cause an increase in blood pressure, specifically by tying the abdominal aorta. The administration has been carried out by the oral route in the dose of 20 and 40 mg/kg respectively. Measurements of diastolic pressure, systolic pressure and average pressure are made after 1, 15, and 30 minutes. After 30 minutes, for each group, determinations are made of the hematic renin and the hematic angiotensin. The dose of 20 mg/kg is found to reduce the diastolic pressure of 10-15% while the systolic pressure and the average pressure remain unchanged. On the other hand, the dose of 40 mg/kg is found to be effective on all three parameters, causing an average reduction of about 25%.

renin = assay: Hematic renin in rats with tied abdominal aorta; type: in vivo; conditions: 20 and 40 mg/kg oral, after 30 minutes
Protocol: as §1

angiotensin = assay: Hematic angiotensin in rats with tied abdominal aorta; type: in vivo; conditions: 20 and 40 mg/kg oral, after 30 minutes
Protocol: as §1

anaesthesized cats = assay: Effect on the circulation and on breathing of anaesthetized cats; type: in vivo
Protocol: For this test, six cats of both sexes are used. The animals had been brought to a state of anaesthesia by means of urethane. The substance AF 544 is administered by the endovenous route in the dose of 0.1-1 mg/kg. The following parameters have been studied: average arterial pressure, amplitude and respiratory frequency, effect on pressure responses to various agonists, (acetylcholine, adrenaline, occlusion of the carotid artery, and vagal stimulation).

[6] = system: isolated small intestine (ileum) of guinea pigs; assay: Spasmolytic activity in vitro on the isolated small intestine (ileum) of guinea pigs, barium chloride as agonist; conditions: 10^-6 g/cc; for % inhibition: incubation 1 minute, BaCl2 2.10^-6 g/cc
Protocol: The tests are carried out in vitro utilizing the isolated small intestine of guinea pigs. As agonist, there is used barium chloride in the dose of 2.10^-6 g/cc. The substance AF 544 and papaverine, which is a substance having well-known spasmolytic activity, are tested in the same concentration of 10^-6 g/cc.

[7] = perfused rat lower limb, dose 5.10^-5 g/cc, high-potassium vasoconstriction

Structure (SMILES): CC(=N)Nc1c(Cl)cccc1Cl
- Solubility in water (Solubility; in water): soluble in water

Structure (SMILES): CC(=N)Nc1c(Cl)cccc1Cl [AF 544, N-(2,6-dichlorophenyl)acetamidine]
- LD50 ([1]; ip): 170 mg/kg
- LD50 ([1]; po, orally): 420 mg/kg
- Vasodilator activity (in words) ([2]; compared with papaverine at equal dose): substantial vasodilator activity, which is only slightly inferior to that of papaverine at equal dose
- Decrease in pressure, mm Hg ± e.s [2, 7]: 60 ± 3.2 mm Hg
- inhibition at 50 µg/mL [2, 7]: 27.5%
- Percentage variation of systolic pressure with respect to the basal values ([3]; 10 mg/kg i.p., 1 hour): -1.5 ± 1.8%
- Percentage variation of systolic pressure with respect to the basal values ([3]; 10 mg/kg i.p., 4 hours): -13.1 ± 6.8%
- Percentage variation of systolic pressure with respect to the basal values ([3]; 25 mg/kg i.p., 1 hour): -6.6 ± 13.4%
- Percentage variation of systolic pressure with respect to the basal values ([3]; 25 mg/kg i.p., 4 hours): -46.2 ± 3.4%
- Percentage variation of systolic pressure with respect to the basal values ([3]; 25 mg/kg i.p., 24 hours): -2.2 ± 2.8%
- Dose dependence of hypotensive activity ([3]; 10 and 25 mg/kg i.p.): depends on the dose
- Decrease in systolic pressure relative to the decrease caused by hydralazine ([3]; AF 544 25 mg/kg i.p. vs hydralazine 1 mg/kg i.p.): 2.5 times
- Time of maximum hypotensive effect [3]: reaches the maximum effect during the fourth hour
- Time of maximum decrease of pressure [4]: between the fourth and eighth hour
- Percentage variation of (systolic) pressure with respect to the basal values of the first day ([4]; day 1, 1 hour): -5%
- Percentage variation of (systolic) pressure with respect to the basal values of the first day ([4]; day 1, 4 hours): -20%
- Percentage variation of (systolic) pressure with respect to the basal values of the first day ([4]; day 1, 8 hours): -18%
- Percentage variation of (systolic) pressure with respect to the basal values of the first day ([4]; day 1, 24 hours): -19%
- Percentage variation of (systolic) pressure with respect to the basal values of the first day ([4]; day 2, 1 hour): -26%
- Percentage variation of (systolic) pressure with respect to the basal values of the first day ([4]; day 2, 4 hours): -20%
- Percentage variation of (systolic) pressure with respect to the basal values of the first day ([4]; day 2, 8 hours): -27%
- Percentage variation of (systolic) pressure with respect to the basal values of the first day ([4]; day 2, 24 hours): -28%
- Percentage variation of (systolic) pressure with respect to the basal values of the first day ([4]; day 3, 1 hour): -22%
- Percentage variation of (systolic) pressure with respect to the basal values of the first day ([4]; day 3, 4 hours): -11%
- Percentage variation of (systolic) pressure with respect to the basal values of the first day ([4]; day 3, 8 hours): -15%
- Percentage variation of (systolic) pressure with respect to the basal values of the first day ([4]; day 3, 24 hours): -12%
- Decrease of pressure at the twenty-fourth hour (in words) ([4]; relative to the maximum at 4-8 hours): remaining about the same during the twenty-fourth hour
- Effect on average pressure ([5]; 20 mg/kg oral): unchanged
- Effect on systolic pressure ([5]; 20 mg/kg oral): unchanged
- Reduction of diastolic pressure ([5]; 20 mg/kg oral): 10-15%
- Average reduction of all three parameters (diastolic, systolic and average pressure) ([5]; 40 mg/kg oral): about 25%
- Activity of renin (renin): increases in proportion to the dose of AF 544
- Quantity of angiotensin (angiotensin): an increase in the quantity of angiotensin occurs, which is inversely proportional to the dose of AF 544
- Effect in % on pressure response to acetylcholine (anaesthesized cats; 0.1 mg/kg i.v.): +5.0%
- Effect in % on pressure response to adrenaline (anaesthesized cats; 0.1 mg/kg i.v.): -25.6%
- Effect in % on pressure response to carotid occlusion (anaesthesized cats; 0.1 mg/kg i.v.): +3.5%
- Effect in % on pressure response to vagal stimulation (anaesthesized cats; 0.1 mg/kg i.v.): +11.5%
- Effect on arterial pressure, % (anaesthesized cats; 0.1 mg/kg i.v.): -13.9%
- Effect on arterial pressure, mm Hg ± e.s (anaesthesized cats; 0.1 mg/kg i.v.): -12.5 mm Hg
- Respiration, amplitude % (anaesthesized cats; 0.1 mg/kg i.v.): +50.9%
- Respiration, frequency % (anaesthesized cats; 0.1 mg/kg i.v.): +31.4%
- Transitory hypotension (anaesthesized cats; 0.1 mg/kg intravenously): 13.9%
- Effect in % on pressure response to acetylcholine (anaesthesized cats; 1 mg/kg i.v.): +4.5%
- Effect in % on pressure response to adrenaline (anaesthesized cats; 1 mg/kg i.v.): +4.0%
- Effect in % on pressure response to carotid occlusion (anaesthesized cats; 1 mg/kg i.v.): +2.5%
- Effect in % on pressure response to vagal stimulation (anaesthesized cats; 1 mg/kg i.v.): +20.4%
- Effect on arterial pressure, % (anaesthesized cats; 1 mg/kg i.v.): -46.0%
- Effect on arterial pressure, mm Hg ± e.s (anaesthesized cats; 1 mg/kg i.v.): -36.7 mm Hg
- Respiration, amplitude % (anaesthesized cats; 1 mg/kg i.v.): +16.1%
- Respiration, frequency % (anaesthesized cats; 1 mg/kg i.v.): -8.5%
- Transitory hypotension (anaesthesized cats; 1 mg/kg intravenously): 46.0%
- Variations of the other parameters observed (in words) (anaesthesized cats; 0.1-1 mg/kg i.v., respiration, responses to agonists): small and statistically they are not significant
- Spasmolytic activity (in words) ([6]; efficacy compared with papaverine in the same concentration): high spasmolytic activity with an efficacy which is statistically analogous to that of papaverine in the same concentration
- % inhibition [6]: 49.8 ± 7.44%
- Solubility in common organic solvents (Solubility; by heating, common organic solvents): soluble by heating in common organic solvents

Structure (SMILES): NNc1nncc2ccccc12 [HYDRALAZINE, hydralazine, reference compound]
- Percentage variation of systolic pressure with respect to the basal values ([3]; 1 mg/kg i.p., 1 hour): +21.0 ± 4.9%
- Percentage variation of systolic pressure with respect to the basal values ([3]; 1 mg/kg i.p., 4 hours): -18.0 ± 3.1%
- Percentage variation of systolic pressure with respect to the basal values ([3]; 1 mg/kg i.p., 24 hours): -7.5 ± 7.8%
- Time of maximum hypotensive effect [3]: reaches the maximum even during the first hour

Structure (SMILES): COc1ccc(Cc2nccc3cc(OC)c(OC)cc23)cc1OC [PAPAVERINE, papaverine, reference compound]
- inhibition at 50 µg/mL ([2]; Rattus norvegicus): 39.3%
- Decrease in pressure, mm Hg ± e.s [2, 7]: 82 ± 13.6 mm Hg
- % inhibition [6]: 73.7 ± 8.09%

Reference: patent US4503076A, “Vasodilator compound and pharmaceutical compositions therefrom” (Ausonia Farmaceutic s.r.l., priority 1981, dated 1985)
